Assay results from PubChem BioAssay (NCI).
Several values for one entry are separate records, joined by “and”; a condition that tells them apart may be missing. Equal entries are not always repeated.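 Five compound concentrations were applied to cells in 96-well plates for 48 hours; endpoints were derived by simple linear interpolation of the resulting dose-response curve. At the GI50, growth is halved. TGI denotes the concentration required for complete inhibition of growth.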

Key:
Experiment in all cases: inhibition of tumour cell growth, NCI panel, 48 h
SF-268 CNS = test system: SF-268 CNS
A498 renal = test system: A498 renal
RPMI-8226 leukemia = test system: RPMI-8226 leukemia
OVCAR-8 ovarian = test system: OVCAR-8 ovarian
TK-10 renal = test system: TK-10 renal
SK-OV-3 ovarian = test system: SK-OV-3 ovarian
IGROV1 ovarian = test system: IGROV1 ovarian
UACC-257 melanoma = test system: UACC-257 melanoma
HT29 colon = test system: HT29 colon
HS 578T breast = test system: HS 578T breast

Structure (SMILES)	TGI (SF-268 CNS)	TGI (A498 renal)	TGI (RPMI-8226 leukemia)	TGI (OVCAR-8 ovarian)	TGI (TK-10 renal)	TGI (SK-OV-3 ovarian)	TGI (IGROV1 ovarian)	TGI (UACC-257 melanoma)	TGI (HT29 colon)	TGI (HS 578T breast)	GI50 (A498 renal)	GI50 (IGROV1 ovarian)	GI50 (UACC-257 melanoma)
CC(=O)OCc1c(O)c2c(c(O)c1COC(C)=O)C(=O)C=CC2=O	30.8 µM	34.7 µM	> 100 µM	30.2 µM	30 µM	33.4 µM	30.5 µM	20.1 µM	31.6 µM	–	–	–	–
C=C1C(O)CC[C@]2(C)C1C1OC(C)(C)O[C@]13CC(=O)C(C)=C([C@H]1OC(C)(C)OC12)C3(C)C (stereo partly drawn)	> 100 µM	> 100 µM	> 100 µM	> 100 µM	> 100 µM	> 100 µM	> 100 µM	> 100 µM	> 100 µM	–	–	–	–
COc1ccc(N(C(=O)Nc2ccc(Cl)c(Cl)c2)C2c3cccn3C(=O)N2c2ccc(Cl)c(Cl)c2)cc1 (stereo not drawn)	> 100 µM	> 100 µM	> 100 µM	> 100 µM	> 100 µM	–	> 100 µM	> 100 µM	> 100 µM	> 100 µM	–	–	–
CCOC(=O)c1nc2cc(C(F)(F)F)ccc2nc1Nc1ccc(C(=O)NC(C(=O)OCC)C(=O)OCC)cc1	53.6 µM	50.3 µM	65.8 µM	–	97.4 µM	42.1 µM	54.2 µM	51.9 µM	> 100 µM	37.5 µM	–	–	–
CCCSc1nc(-c2ccc(OC)cc2)c(C#N)c(=O)n1C1OC(COC(C)=O)C(OC(C)=O)C(OC(C)=O)C1OC(C)=O (stereo not drawn)	> 100 µM	> 100 µM and 78.2 µM	> 100 µM	–	–	> 100 µM	> 100 µM	> 100 µM and 56.6 µM	> 100 µM	–	20.9 µM	> 100 µM and 43.4 µM	> 100 µM and 22.4 µM
COc1cc2c(c(O)c1OC)C(=O)C(Cc1ccc(O)cc1)CO2 (stereo not drawn)	> 100 µM	–	60.3 µM	> 100 µM	> 100 µM	61.3 µM	> 100 µM	> 100 µM	> 100 µM	36.5 µM	–	–	–
CCCCn1c(-c2ccc([N+](=O)[O-])cc2)cs/c1=N/N=C1\C(=O)Nc2ccc(Br)cc21	> 100 µM	34.3 µM	–	> 100 µM	34 µM	48.8 µM	> 100 µM	47.2 µM	33.1 µM	> 100 µM	–	–	–
c1c2c(cc(-n3nnc4c3CCCCCC4)c1-n1nnc3c1CCCCCC3)CCCCCC2	23.8 µM	22.2 µM	–	38.7 µM	25.4 µM	34.5 µM	41.2 µM	32.9 µM	19.8 µM	–	–	–	–
CCC(C(=O)C(=O)OC)P1(=O)OC(C)(C)CN1C(C)(C)C (stereo not drawn)	> 100 µM	53.1 µM	> 100 µM	> 100 µM	> 100 µM	> 100 µM	> 100 µM	> 100 µM	> 100 µM	–	–	–	–
O=c1[nH]c(Nc2cccc(CO)c2)nc2nc[nH]c12	> 100 µM	–	> 100 µM	> 100 µM	> 100 µM	> 100 µM	> 100 µM	> 100 µM	> 100 µM	> 100 µM	–	–	–
C=C1c2nc3ccccc3n2C=C(c2ccc(Cl)cc2)N1c1ccc(OC)cc1	–	> 100 µM	> 100 µM	15.8 µM	13.2 µM	23.7 µM	26.1 µM	30.5 µM	–	–	–	–	–
COc1nc(C#CC(C)(C)C)nc(OC)n1	78.6 µM	> 100 µM	–	37.6 µM	57.8 µM	> 100 µM	> 100 µM	> 100 µM	> 100 µM	91.8 µM	–	–	–
CC(=O)OC1CCC2C3CCc4c(C)ccc(OS(=O)(=O)c5ccccc5)c4C3CCC12C (stereo not drawn)	> 100 µM	> 100 µM	> 100 µM	–	> 100 µM	> 100 µM	> 100 µM	> 100 µM	> 100 µM	–	–	–	–
CCCCCCCCCc1nn2c(Cc3ccccc3)nnc2s1	32.4 µM	34.2 µM	77.2 µM	29.8 µM	54.5 µM	66.7 µM	–	54.1 µM	–	38.5 µM	–	–	–
CCOC(=O)C#Cc1ccccc1	–	75.3 µM	35.2 µM	> 100 µM	59.9 µM	89.6 µM	–	> 100 µM	21.4 µM	82.3 µM	–	–	–
N#Cc1c(-c2ccccc2)cc(-c2ccc(Cl)cc2)[nH]c1=S	> 100 µM	63.5 µM	80.2 µM	> 100 µM	> 100 µM	77.6 µM	89.8 µM	–	> 100 µM	> 100 µM	–	–	–
CN(C)CCNC(=O)c1cccc2nc(-c3ccccc3)oc12	> 100 µM	> 94.3 µM	> 100 µM	> 100 µM	–	> 100 µM	> 100 µM	98.1 µM	> 100 µM	–	–	–	–
COCCOCCOC1=CC(=O)c2c(O)ccc(O)c2C1=O	6.93 µM	5.08 µM	4.26 µM	–	4.51 µM	–	3.21 µM	1.43 µM	1.79 µM	6.05 µM	–	–	–
CCOC(=O)c1nnsc1NN	> 100 µM	–	–	> 100 µM	> 100 µM	> 100 µM	> 100 µM	> 100 µM	> 100 µM	> 100 µM	–	–	–
O=c1[nH]c(=O)n(C2CC(O)C(CO)O2)cc1OCc1ccccc1 (stereo not drawn)	> 100 µM	–	> 100 µM	> 100 µM	> 100 µM	> 100 µM	> 100 µM	> 100 µM	> 100 µM	> 100 µM	–	–	–
COC(=O)[C@H](Cc1ccccc1)NC(=O)CCCCCCC(=O)NO	72.1 µM	–	> 100 µM	> 100 µM	72.5 µM	52.3 µM	57.5 µM	45.4 µM	> 100 µM	> 100 µM	–	–	–
COc1ccc(-c2cc(-c3ccccc3)[nH]c(=S)c2C#N)cc1	> 100 µM	60.2 µM	51.7 µM	90.5 µM	> 100 µM	93.6 µM	> 100 µM	–	> 100 µM	> 100 µM	–	–	–
O=c1[nH]nc(Cc2ccccc2)n1/N=C/c1ccncc1	> 100 µM	> 100 µM	> 100 µM	> 100 µM	> 100 µM	–	> 100 µM	> 100 µM	> 100 µM	> 100 µM	–	–	–
COc1ccc(NC(=S)NC(=O)c2ccc3c(c2)Sc2ccccc2O3)c([N+](=O)[O-])c1	45.7 µM	38.2 µM	–	> 100 µM	36.9 µM	98.3 µM	59.1 µM	> 100 µM	> 100 µM	43.2 µM	–	–	–
